SMILES strings stand for the structures.

For the assay, the target named is T1, endogenous wild-type p53 protein (Mus musculus, UniProt P02340).
T1 construct: from tissue; host or cells: liver of C57BL/6J wild-type mice
In words: Western blot of wild-type p53 protein in liver of mice given the compound. The format is in vivo. To be noted: C57BL/6J mice, 48 hours after administration. As to the method: In Example 4, degradation (knockdown) of the endogenous wild-type p53 protein and MDM2 protein in mouse individuals in which TIBC-CANDDY_MLN had been administered was evaluated by Western blot analysis.
TIBC-CANDDY_MLN was dissolved in DMSO immediately before administration, and then dissolved in corn oil (Code No. 25606-55, Nacalai Tesque) so that the concentration of DMSO was 10 vol %, and then a dose of 50 mg/kg body weight or 100 mg/kg body weight was administered intraperitoneally to C57BL/6J wild-type mice (7 to 8 weeks old, male) (CLEA Japan, Inc.) (n=3). As a control, an injection carrier (corn oil containing 10 vol % DMSO) was used. The mice were kept under an environment of ad libitum access to food and water. […]
The frozen tissue (0.04 g) was triturated, and then 980 μL of 1×TKM tissue lysis buffer (50 mM triethanolamine (pH 7.8), 50 mM KCl, 5 mM MgCl2, 0.25 M sucrose, 1 mM PMSF, protein inhibitors cocktail-EDTA free (Code No. 03969-21, Nacalai Tesque), 1 mM DTT, Recombinant RNase inhibitor 5 μl/mL (40 U/μl, Cat No. 2313A, Lot No. K8402DA, TAKARA Bio)) was added, and dissolved by rotation for 15 minutes (1 rpm, 25° C.). […] The concentration of proteins in the tissue extract was quantified with a spectrophotometer with the tissue extract that had been diluted 20 times using DEPC-treated water. […]

T1 sequence (P02340 whole entry): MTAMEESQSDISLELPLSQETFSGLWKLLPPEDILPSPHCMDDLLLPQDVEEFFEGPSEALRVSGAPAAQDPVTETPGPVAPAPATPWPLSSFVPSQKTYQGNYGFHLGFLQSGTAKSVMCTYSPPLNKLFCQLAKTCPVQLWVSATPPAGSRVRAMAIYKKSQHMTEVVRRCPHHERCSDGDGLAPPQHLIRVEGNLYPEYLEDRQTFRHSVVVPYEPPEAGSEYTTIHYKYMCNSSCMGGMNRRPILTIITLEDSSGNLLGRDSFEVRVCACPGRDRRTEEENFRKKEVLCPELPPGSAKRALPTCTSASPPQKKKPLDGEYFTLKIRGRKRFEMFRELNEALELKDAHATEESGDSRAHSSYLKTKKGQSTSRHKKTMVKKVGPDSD

In the case of `CC(C)C[C@H](NC(=O)CNC(=O)c1cc(Cl)ccc1Cl)C(=O)NCCCCCCC(=O)Nc1ccc(C(=O)/C=C/c2ccc(I)cc2)cc1` [TIBC-CANDDY_MLN], the “amount of endogenous wild-type p53 protein in the liver” value runs as follows: (50 mg/kg body weight intraperitoneally) “reduced”; (100 mg/kg body weight intraperitoneally) “reduced”.

These data come from patent publication US11007269B2, “P53 degradation inducing molecule and pharmaceutical composition” (Tokyo University of Science Foundation, priority 2016, dated 2021).
